Patent US10941152B2, “Pyrazole compounds as modulators of FSHR and uses thereof” (TOCOPHERX, INC., priority 2014, dated 2021)

How the values were obtained:
[1] = biological target: T1, FSHR (Homo sapiens, UniProt P23945); experiment: EC50 of cyclic AMP production in CHO FSHR cells + EC20 FSH (Assay A); assay type: cell-based; settings: cyclic AMP production in CHO FSHR cells + EC20 FSH (0.265 pM), HTRF
T1 construct: expressed in transfected cells; host or cells: CHO (Cho-FSHR-LUC-1-1-43)
T1 sequence (P23945 18-695): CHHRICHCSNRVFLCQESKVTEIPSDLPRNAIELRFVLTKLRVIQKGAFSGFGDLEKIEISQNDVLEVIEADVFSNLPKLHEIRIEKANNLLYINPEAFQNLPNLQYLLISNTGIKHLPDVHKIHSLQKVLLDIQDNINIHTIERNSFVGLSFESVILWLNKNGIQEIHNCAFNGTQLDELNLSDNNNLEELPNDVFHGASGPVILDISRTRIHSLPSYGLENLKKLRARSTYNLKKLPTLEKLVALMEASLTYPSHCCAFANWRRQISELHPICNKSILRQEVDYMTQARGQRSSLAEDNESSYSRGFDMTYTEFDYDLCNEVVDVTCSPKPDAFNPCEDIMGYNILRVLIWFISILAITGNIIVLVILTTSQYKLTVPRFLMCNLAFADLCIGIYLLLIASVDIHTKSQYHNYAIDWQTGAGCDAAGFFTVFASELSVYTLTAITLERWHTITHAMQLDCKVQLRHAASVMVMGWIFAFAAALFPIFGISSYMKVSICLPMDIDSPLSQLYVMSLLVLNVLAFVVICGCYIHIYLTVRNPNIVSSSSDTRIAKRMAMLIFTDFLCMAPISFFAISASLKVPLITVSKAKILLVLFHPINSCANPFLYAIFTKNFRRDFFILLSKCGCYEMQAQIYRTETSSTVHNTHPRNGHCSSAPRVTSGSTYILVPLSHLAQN
Procedure, shortened: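 cAMP was detected by HTRF as the 665/620 nm ratio. The CHO-FSHR cells had first been exposed for 1 h at 37° C to test compound together with 0.265 pM FSH (EC20) and 200 μM IBMX. Responses are given as percent of the FSH standard maximum.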

[2] = biological target: T2, follicle-stimulating hormone (FSH) receptor (Rattus norvegicus, UniProt P20395); experiment: Rat granulosa EC50 FSH (Assay B); assay type: cell-based
T2 construct: endogenous in cells; host or cells: rat granulosa cells
T2 sequence (P20395 18-692): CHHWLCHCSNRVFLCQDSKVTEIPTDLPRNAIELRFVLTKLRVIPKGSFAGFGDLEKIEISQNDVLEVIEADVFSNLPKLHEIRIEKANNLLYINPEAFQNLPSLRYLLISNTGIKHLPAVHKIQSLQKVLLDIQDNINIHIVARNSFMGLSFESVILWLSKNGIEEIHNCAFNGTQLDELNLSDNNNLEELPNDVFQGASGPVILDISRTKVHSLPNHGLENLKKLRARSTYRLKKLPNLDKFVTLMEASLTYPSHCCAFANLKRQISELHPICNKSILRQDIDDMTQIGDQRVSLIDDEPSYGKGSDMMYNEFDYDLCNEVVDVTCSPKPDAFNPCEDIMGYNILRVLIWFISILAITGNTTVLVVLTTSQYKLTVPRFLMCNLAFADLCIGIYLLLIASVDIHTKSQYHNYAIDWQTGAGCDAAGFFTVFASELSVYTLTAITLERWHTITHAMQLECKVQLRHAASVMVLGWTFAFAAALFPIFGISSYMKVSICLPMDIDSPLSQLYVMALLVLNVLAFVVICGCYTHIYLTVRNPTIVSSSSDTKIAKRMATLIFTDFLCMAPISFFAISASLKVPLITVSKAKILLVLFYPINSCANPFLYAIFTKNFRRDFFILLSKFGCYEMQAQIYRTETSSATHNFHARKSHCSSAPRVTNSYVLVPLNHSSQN
Protocol: Example 25. Rat granulosa EC50 FSH (Assay B)
The assay was performed pursuant to the teaching of Yanofsky et al. (2006) Allosteric activation of the follicle-stimulating hormone (FSH) receptor by selective, nonpeptide agonists (JBC 281(19): 13226-13233, which is incorporated by reference in the disclosure of the invention).

Row | SMILES | EC50 [1] | EC50 [2]
1 | COc1cc2c(cc1-c1cncc(C(N)=O)c1C)-c1c(c(C(=O)N(C)C(C)(C)C)nn1-c1cc(Cl)cc(Cl)c1)CO2 [Compound 116, N-tert-butyl-8-(5-carbamoyl-4-methylpyridin-3-yl)-1-(3,5-dichlorophenyl)-7-methoxy-N-methyl-1,4-dihydrochromeno[4,3-c]pyrazole-3-carboxamide] | < 0.01 µM | 0.01 to 0.1 µM
2 | COc1cc(-c2cc3c(cc2OC)OCc2c(C(=O)N(C)C(C)(C)C)nn(-c4cc(Cl)cc(Cl)c4)c2-3)cc(C(N)=O)n1 [Compound 117, N-tert-butyl-8-(2-carbamoyl-6-methoxypyridin-4-yl)-1-(3,5-dichlorophenyl)-7-methoxy-N-methyl-1,4-dihydrochromeno[4,3-c]pyrazole-3-carboxamide] | < 0.01 µM | 0.01 to 0.1 µM
3 | COc1cc2c(cc1-c1cncc(C(N)=O)c1C)-c1c(c(C(=O)N(C)C(C)(C)C#N)nn1-c1cc(Cl)cc(Cl)c1)CO2 [Compound 118, 8-(5-carbamoyl-4-methylpyridin-3-yl)-N-(2-cyanopropan-2-yl)-1-(3,5-dichlorophenyl)-7-methoxy-N-methyl-1,4-dihydrochromeno[4,3-c]pyrazole-3-carboxamide] | < 0.01 µM | 0.01 to 0.1 µM
4 | COc1cc2c(cc1-c1cncc(C(N)=O)c1C)-c1c(c(C(=O)N(C)C(C)(C)C#N)nn1-c1cc(F)cc(F)c1)CO2 [Compound 119, 8-(5-carbamoyl-4-methylpyridin-3-yl)-N-(2-cyanopropan-2-yl)-1-(3,5-difluorophenyl)-7-methoxy-N-methyl-1,4-dihydrochromeno[4,3-c]pyrazole-3-carboxamide] | < 0.01 µM | 0.101 to 0.5 µM
5 | COc1cc2c(cc1-c1cc(C(N)=O)ccn1)-c1c(c(C(=O)N(C)C(C)(C)C#N)nn1-c1cc(Cl)cc(Cl)c1)CO2 [Compound 120, 8-(4-carbamoylpyridin-2-yl)-N-(2-cyanopropan-2-yl)-1-(3,5-dichlorophenyl)-7-methoxy-N-methyl-1,4-dihydrochromeno[4,3-c]pyrazole-3-carboxamide] | < 0.01 µM | 0.01 to 0.1 µM
6 | COc1cc2c(cc1-c1ccn(C)n1)-c1c(c(C(=O)N(CCO)C(C)(C)C)nn1-c1ccsc1)CO2 [Compound 121, N-tert-butyl-N-(2-hydroxyethyl)-7-methoxy-8-(1-methyl-1H-pyrazol-3-yl)-1-(thiophen-3-yl)-1,4-dihydrochromeno[4,3-c]pyrazole-3-carboxamide] | 0.01 to 0.1 µM | > 0.5 µM
7 | COc1cc2c(cc1-c1ccn(C)n1)-c1c(c(C(=O)N(CCO)C(C)(C)C)nn1-c1cc(Cl)cc(Cl)c1)CO2 [Compound 122, N-tert-butyl-1-(3,5-dichlorophenyl)-N-(2-hydroxyethyl)-7-methoxy-8-(1-methyl-1H-pyrazol-3-yl)-1,4-dihydrochromeno[4,3-c]pyrazole-3-carboxamide] | 0.01 to 0.1 µM | 0.101 to 0.5 µM
8 | COc1cc2c(cc1-c1cccnc1F)-c1c(c(C(=O)N(CCO)C(C)(C)C)nn1-c1cc(Cl)cc(Cl)c1)CO2 [Compound 123, N-tert-butyl-1-(3,5-dichlorophenyl)-8-(2-fluoropyridin-3-yl)-N-(2-hydroxyethyl)-7-methoxy-1,4-dihydrochromeno[4,3-c]pyrazole-3-carboxamide] | < 0.01 µM | 0.01 to 0.1 µM
9 | COc1cc2c(cc1CC(C)C)-c1c(c(C(=O)N3CCC(=O)CC3(C)C)nn1-c1ccsc1)CO2 [Compound 125, 1-(8-isobutyl-7-methoxy-1-(thiophen-3-yl)-1,4-dihydrochromeno[4,3-c]pyrazole-3-carbonyl)-2,2-dimethylpiperidin-4-one] | < 0.01 µM | 0.01 to 0.1 µM
10 | COCC1(CC(C)C)CCCN1C(=O)c1nn(-c2ccsc2)c2c1COc1cc(OC)c(-c3ccn(C)n3)cc1-2 (stereo not drawn) [Compound 127, (2-isobutyl-2-(methoxymethyl)pyrrolidin-1-yl)(7-methoxy-8-(1-methyl-1H-pyrazol-3-yl)-1-(thiophen-3-yl)-1,4-dihydrochromeno[4,3-c]pyrazole-3-yl)methanone] | 0.01 to 0.1 µM | 0.101 to 0.5 µM
11 | COc1cc2c(cc1-c1ccn(C)n1)-c1c(c(C(=O)N3C[C@H](O)[C@H](O)CC3(C)C)nn1-c1ccsc1)CO2 [Compound 130, ((4R,5S)-4,5-dihydroxy-2,2-dimethylpiperidin-1-yl)(7-methoxy-8-(1-methyl-1H-pyrazol-3-yl)-1-(thiophen-3-yl)-1,4-dihydrochromeno[4,3-c]pyrazol-3-yl)methanone] | 0.01 to 0.1 µM | 0.101 to 0.5 µM
12 | COCC1(CC(F)(F)F)CCCN1C(=O)c1nn(-c2ccsc2)c2c1COc1cc(OC)c(-c3ccn(C)n3)cc1-2 (stereo not drawn) [Compound 131, (7-methoxy-8-(1-methyl-1H-pyrazol-3-yl)-1-(thiophen-3-yl)-1,4-dihydrochromeno[4,3-c]pyrazol-3-yl)(2-(methoxymethyl)-2-(2,2,2-trifluoroethyl)pyrrolidin-1-yl)methanone] | 0.01 to 0.1 µM | 0.01 to 0.1 µM
13 | COc1cc2c(cc1-c1ccn(C)n1)-c1c(c(C(=O)N(C)C(C)(C)C#N)nn1-c1cc(Cl)cc(Cl)c1)CO2 [Compound 132, N-(2-cyanopropan-2-yl)-1-(3,5-dichlorophenyl)-7-methoxy-N-methyl-8-(1-methyl-1H-pyrazol-3-yl)-1,4-dihydrochromeno[4,3-c]pyrazole-3-carboxamide] | 0.01 to 0.1 µM | 0.101 to 0.5 µM
14 | COc1cc(OC)cc(-n2nc(C(=O)N(C)C(C)(C)CCO)c3c2-c2cc(-c4ccn(C)n4)c(OC)cc2OC3)c1 [Compound 134, 1-(3,5-dimethoxyphenyl)-N-(4-hydroxy-2-methylbutan-2-yl)-7-methoxy-N-methyl-8-(1-methyl-1H-pyrazol-3-yl)-1,4-dihydrochromeno[4,3-c]pyrazole-3-carboxamide] | 0.01 to 0.1 µM | > 0.5 µM
15 | COc1cc(OC)cc(-n2nc(C(=O)N(C)C(C)(C)CCO)c3c2-c2cc(-c4cccnc4F)c(OC)cc2OC3)c1 [Compound 135, 1-(3,5-dimethoxyphenyl)-8-(2-fluoropyridin-3-yl)-N-(4-hydroxy-2-methylbutan-2-yl)-7-methoxy-N-methyl-1,4-dihydrochromeno[4,3-c]pyrazole-3-carboxamide] | < 0.01 µM | 0.01 to 0.1 µM
16 | COc1cc2c(cc1-c1c(C)nn(CC(=O)N(C)C)c1C)-c1c(c(C(=O)N(C)C(C)(C)C)nn1-c1cc(Cl)cc(Cl)c1)CO2 [Compound 136, N-tert-butyl-1-(3,5-dichlorophenyl)-8-(1-(2-(dimethylamino)-2-oxoethyl)-3,5-dimethyl-1H-pyrazol-4-yl)-7-methoxy-N-methyl-1,4-dihydrochromeno[4,3-c]pyrazole-3-carboxamide] | < 0.01 µM | 0.01 to 0.1 µM
17 | COc1cc2c(cc1-c1c(C)nn(CC(=O)O)c1C)-c1c(c(C(=O)N(C)C(C)(C)C)nn1-c1cc(Cl)cc(Cl)c1)CO2 [Compound 137, 2-(4-(3-(tert-butyl(methyl)carbamoyl)-1-(3,5-dichlorophenyl)-7-methoxy-1,4-dihydrochromeno[4,3-c]pyrazol-8-yl)-3,5-dimethyl-1H-pyrazol-1-yl)acetic acid] | < 0.01 µM | 0.101 to 0.5 µM
18 | COC(=O)Cn1nc(C)c(-c2cc3c(cc2OC)OCc2c(C(=O)N(C)C(C)(C)C)nn(-c4cc(Cl)cc(Cl)c4)c2-3)c1C [Compound 138, methyl 2-(4-(3-(tert-butyl(methyl)carbamoyl)-1-(3,5-dichlorophenyl)-7-methoxy-1,4-dihydrochromeno[4,3-c]pyrazol-8-yl)-3,5-dimethyl-1H-pyrazol-1-yl)acetate] | < 0.01 µM | 0.101 to 0.5 µM
